This is an account of results in US5567831A, “Non-steroidal sulfatase inhibitor compounds and their method of use” (Duguesne University of the Holy Ghost, priority 1995, dated 1996).

The target in data set [1] is T1, estrone sulfatase activity in intact MDA-MB-231 breast cancer cells (Homo sapiens, UniProt P08842).
T1 construct: host or cells: MDA-MB-231
T1 sequence (P08842 22-583): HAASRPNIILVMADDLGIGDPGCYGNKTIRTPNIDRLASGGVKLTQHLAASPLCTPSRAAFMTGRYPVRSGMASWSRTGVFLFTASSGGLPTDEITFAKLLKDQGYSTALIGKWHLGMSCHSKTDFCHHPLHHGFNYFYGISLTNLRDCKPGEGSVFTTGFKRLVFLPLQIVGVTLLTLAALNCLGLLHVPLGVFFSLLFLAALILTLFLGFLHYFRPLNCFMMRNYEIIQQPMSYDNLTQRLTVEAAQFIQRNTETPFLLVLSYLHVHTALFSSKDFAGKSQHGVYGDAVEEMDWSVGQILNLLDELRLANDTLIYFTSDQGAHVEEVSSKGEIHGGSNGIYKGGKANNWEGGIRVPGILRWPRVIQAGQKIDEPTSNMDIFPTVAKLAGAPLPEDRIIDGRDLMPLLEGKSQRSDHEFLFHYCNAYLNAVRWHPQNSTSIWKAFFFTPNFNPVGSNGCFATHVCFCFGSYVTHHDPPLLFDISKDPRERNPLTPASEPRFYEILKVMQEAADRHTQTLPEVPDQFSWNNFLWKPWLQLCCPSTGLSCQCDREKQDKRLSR
Briefly: In vitro estrogen sulfatase assay on intact cell monolayers. The class given is cell-based. The note with it: intact MDA-MB-231 monolayers, 18 hours at 37° C., [3H]E1S (2 nM), inhibitor 0.1 nM to 1 μM; read-out: apparent I.C. 50, concentration of the inhibitor to inhibit 50% of the sulfatase activity in the MDA-MB-231 cells. The procedure: The in vitro sulfatase assay on intact cells involved a modification of the procedure of Duncan et al. ["Inhibition of estrone sulfatase activity by estrone 3-methylthiophosphonate", Cancer Res., Vol. 53, pp. 298-303 (1993)]. Intact nearly confluent monolayers of MDA-MB-231 (American Type Culture Collection) breast cancer cells in 6-well tissue-culture plates were washed with Hank's balanced salt solution (HBSS) and incubated for 18 hours at 37° C. with [^3 H]E1 S (5 pmol, 7×10^5 dpm) in serum-free Minimal Essential Medium (MEM) (2.5 ml) with or without test compounds (0.01 nM to 10 μM). After incubation, each dish was cooled and aliquots of the medium (0.5 ml) were pipetted into separate tubes containing 3 ml toluene. The mixture was shaken vigorously for 30 seconds and then centrifuged for 3 minutes at 2500 x g. Previous experiments have shown that >90% of estrone (E1) and <0.1% of […] (E1 S) is removed from the aqueous phase by this treatment. […] Radioactivity was determined using a Packard TriCarb scintillation counter with 50% efficiency for ^3 H. Each batch of experiments included dishes without cells (to assess apparent non-enzymatic hydrolysis of the substrate). […] Estrone sulfatase activity was determined from the amount of ^3 H-E1 tritiated estrone and ^3 H-E2 triated estradiol formed. […]

For data set [2] the following is noted: rat, in vivo.

`CCCCCCCCCCCC(=O)NCCc1ccc(OS(N)(=O)=O)cc1` [N-lauroyl-(p-o-sulfamoyl) tyramine (C12), N-lauroyl-(p-o-sulfamoyl) tyramine]: the IC50 in data set [1] lay in the range of 1 to 2 nM.

Consider `C[C@]12CC[C@@H]3c4ccc(OS(N)(=O)=O)cc4CC[C@H]3[C@@H]1CCC2=O` [estrone 3-0 sulfamate], for which the “estrogenicity in uterine weight gain assay” value in data set [2] was “estrogenic”.
